Row | melting point [°C] | Compound
1 | 123 to 127 | CCC1CC2C3CCC4=C(CCC(=O)C4)C3=CCC2(CC)C1OC(C)=O (centres undefined)
2 | 142 to 144 | CNC(=O)n1nc(Oc2ccc([N+](=O)[O-])cc2C(F)(F)F)cc1C
3 | 72 to 73 | CCOC(=O)c1sc(Oc2ccc(Cl)cc2Cl)nc1-c1cccc(C(F)(F)F)c1
4 | 250 | COc1cc2c(cc1OC)-c1nccc3cccc(c13)C2=O
5 | 100 to 101 | CCCCc1oc2ccc(C(=O)OC(C)C)cc2c1C(=O)c1ccc(OS(=O)(=O)C(F)(F)F)cc1
6 | 135 to 136 | Cc1ccc(S(=O)(=O)N(C)NC(=O)c2c(F)cccc2Cl)cc1
7 | 180 to 181 | O=C(c1ccccc1F)c1cc2c(c(Cl)c1Cl)OC(C(=O)O)C2 (centres undefined)
8 | 322 to 323 | CCC(C)(C)c1cc(-c2ccc(C=C3SC(N4CCOCC4)=NC3=O)s2)ccc1O
9 | 171 to 173 | COc1ccc(C(=O)C=Cc2ccc([N+](=O)[O-])cc2)cc1
10 | 110 to 112 | Cc1c(SCCN(C)Cc2ccccc2)ccnc1CSc1nc2ccccc2[nH]1
11 | 115 to 116 | OC(Cn1cncn1)(c1ccc(F)cc1)c1ccccc1Cl (centres undefined)
12 | 86 to 87 | Cc1ccc(C(=O)OC2CCN(Cc3ccccc3[N+](=O)[O-])CC2)cc1
13 | 144 to 150 | CCCCNC(=O)NS(=O)(=O)Cc1c(C(=O)OC)cccc1[N+](=O)[O-]
14 | 120 to 130 | COc1cc2c(cc1OC)[C@@H]1CCCC[C@@H]1N=C2c1ccc(N(S(=O)(=O)c2ccc(C)cc2)S(=O)(=O)c2ccc(C)cc2)cc1 (racemic)
15 | 264 to 267 | CN(C)C(=O)c1cc(-c2ccccc2)c(=O)[nH]c1-c1c(Cl)cccc1C#N
16 | 160 to 165 | CC(O)Cn1nc(-c2cnc3[nH]cc(C(=O)NC(C)C(=O)N4CC(C#N)C4)c3n2)c2ccc(Cl)cc21 (centres undefined)
17 | 164 to 170 | Cc1cc(C(=O)c2ccc(C(=O)c3cc(C)c(OCC4CO4)c(C)c3)cc2)cc(C)c1OCC1CO1 (centres undefined)
18 | 71 to 72 | CCCCCCCCCCCCCCCCCNC(=O)OCC(CO)Oc1ccon1 (centres undefined)
19 | 68 to 70 | CCCCCCCCCCCCCCCCS(=O)(=O)Nc1ccc(OC)c(NC(=O)CC(=O)C2(C)COC(C)(C)OC2)c1
20 | 109 | CN(C)C(=O)C1Oc2ccc([N+](=O)[O-])cc2O1 (centres undefined)
21 | 72 to 73 | COCCNC(=O)c1cccc(CN2C(=O)C3(COc4cc5c(cc43)CCO5)c3ccccc32)c1 (centres undefined)
22 | 88 to 90 | COC(=O)[C@H](Cc1c[nH]c2ccccc12)NC(=O)CCC(=O)[C@H](Cc1ccccc1)NC(=O)c1ccccc1
23 | 245 to 247 | CSc1nccn1CC(=O)NC1C(=O)N2C(C(=O)O)=C(COC(C)=O)CSC12 (centres undefined)

Row | melting point [°C] | Compound
24 | 143 to 144 | CCC(O)c1nc(C)nc2c1c(C)c(C)n2-c1c(C)cc(C)cc1C (centres undefined)
25 | 178 | COc1cc2c(cc1[N+](=O)[O-])NC(=O)CN(CC1CC1)C2
26 | 143 to 145 | Nc1cc(S(=O)(=O)C(F)(F)F)cc(Cl)c1N
27 | 245 to 250 | CC(=O)OC1CCN(c2ccc3[nH]c(=O)ccc3c2)CC1
28 | 175 to 177 | CSc1cn(C)c2cc(-c3ccccc3Cl)sc2c1=O
29 | 149 to 150 | N#CC(S)(CCC(=O)O)C1=NCCc2ccccc21 (centres undefined)
30 | 146 | CC(C)C(=O)Oc1cccc2c1C(=O)c1c(O)cccc1C2C(=O)C1CCCCC1 (centres undefined)
31 | 171 to 174 | CC(C)(C)c1ccc(-c2cccc(-c3ccccc3)c2CC(=O)NC(=N)N)cc1
32 | 83 to 83.5 | COc1cccc(C2OCC(C)(C)C2(O)C(C)(C)C)c1 (centres undefined)
33 | 101 to 102 | CC(C)(C)NC(=O)N(C=O)Oc1cc(Cl)ccc1Cl
34 | 220 to 223 | COc1cc(S(C)=O)ccc1-c1nc2ncc(O)cc2[nH]1 (centres undefined)
35 | 86 | O=S(=O)(c1ccccc1)c1cncc(OC2SCC(O)C(O)C2O)c1 (centres undefined)
36 | 111 to 113 | C=C(OCC)c1c(C)nc(C)nc1NCc1ccc(Br)cc1
37 | 165 to 175 | O=C(O)CCc1cc2cc(Cl)ccc2n1S(=O)(=O)c1cccc2ccccc12
38 | 168 to 172 | CCCCN(CCCC)c1ccc(C=CC=CC=CC2=C(C#N)C(=C(C#N)C#N)OC2(C)C(F)(F)F)c(OC)c1 (centres undefined)
39 | 183 to 185 | Oc1ccc(-c2nc3cc(O)cc(Br)c3o2)c(C(F)(F)F)c1
40 | 150 to 154 | CC(C)NCCNC(=O)c1ccc(OCc2ccc(-c3ccccc3)cc2)cc1
41 | 151 | COC(=O)c1cccc(Sc2ccccc2)c1S(C)(=O)=O
42 | 74 | CCOC(=O)C(NC(=O)c1ccccc1)C(C)C (centres undefined)
43 | 59 to 61 | Cc1cc(C)cc(Cc2c(C(C)C)c(=O)[nH]c(=O)n2COCCCN(OC(=O)Oc2ccccc2)C(=O)Oc2ccccc2)c1
44 | 131 to 132 | CCC12CCC3c4ccc(OC)cc4CCC3C1CCC2OCCO (centres undefined)
45 | 410 | O=c1[nH]c2c(cc1S(=O)(=O)c1ccccc1)CCc1cc[nH]c1-2
46 | 107 | Oc1cncc(Oc2ccccc2)c1

Row | melting point [°C] | Compound
47 | 178 to 180 | CN(C)C1CCC(Nc2ncc3ncnc(Nc4ccc(F)c(Cl)c4)c3n2)CC1 (centres undefined)
48 | 86 to 88 | COC(=O)C1=Cc2cc(-c3ccc(OCCOC(C)C)cc3)ccc2NCC1
49 | 301 to 303 | CC(O)CCCOc1ccc2nc3[nH]c(=O)[nH]c3cc2c1 (centres undefined)
50 | 79 to 82 | CCCCn1cnnc1SCC(=O)c1ccc(OC)cc1
51 | 123 to 125 | CCNC(=O)n1nc(Oc2ncc(C(F)(F)F)cc2Cl)c(Br)c1C
52 | 170 to 171 | O=C(O)c1ccc(F)nc1F
53 | 91 to 93 | CCOC(=O)c1cc(-n2c(OC)nc(C(F)(F)F)cc2=O)c(F)cc1Cl
54 | 92 to 95 | CCOC(=O)c1ccc(OCc2ccc(C3CCN(C(=O)OC(C)(C)C)CC3)cn2)cc1F
55 | 113 to 114 | CC1(C2CCCC2)Cc2cc(OCC(=O)O)c(Cl)c(Cl)c2C1=O (centres undefined)
56 | 79 to 81 | CCn1nnc(-c2ccc(CN3CCC(C(O)(c4ccc5c(c4)OC(F)(F)O5)c4ccc5c(c4)OC(F)(F)O5)CC3)cc2)n1
57 | 267 | NC(=O)c1[nH]c2ccc(Cl)cc2c1S(=O)(=O)c1ccccc1Cl
58 | 198 to 200 | COc1ccc(CS[C@@H]2CN[C@H](C(=O)O)C2)cc1
59 | 153 | COc1ccc(C(=O)Nc2ccc3ccc(Oc4ccccc4C)nc3n2)cc1
60 | 144 | N#CCc1ccc2nc(-c3ccccc3)oc2c1
61 | 157 to 158 | CCN(c1ccc(C)c2cc(-c3ncc(CN4CCN(C(C)=O)CC4)s3)[nH]c12)S(=O)(=O)c1cccs1
62 | 92 | N#CCOc1cccc(CCNS(=O)(=O)c2ccc(Cl)cc2)c1
63 | 202 to 204 | CC1CN(c2ccc(C(N)=O)cc2)CCN1Cc1cn2cc(Cl)ccc2n1 (racemic)
64 | 191 to 192 | COc1ccc(-c2nc(C)nn2-c2ccc(S(N)(=O)=O)cn2)cc1
65 | 132 to 135 | Cc1cnc(NC(=O)[C@H]2[C@H](c3ccccc3)C2(C)C)s1 (relative stereo)
66 | 121 to 124 | ClC(=NNc1ccccc1)c1ccc(Cl)c(Cl)c1
67 | 72 to 74 | Cc1ccc([N+](=O)[O-])cc1S(=O)(=O)N(C)C
68 | 224 | CN(c1cccc2cc(-c3ncc(CN4CCC5(CC4)CNC(=O)O5)s3)[nH]c12)S(=O)(=O)c1cccs1
69 | 240 to 241 | CCC(CC)Cn1c(=O)c(=O)[nH]c2cc([N+](=O)[O-])c(-n3cccc3C(=O)OC)cc21

Row | melting point [°C] | Compound
70 | 168 to 169 | COc1ccc2c(=O)c(-c3ccccc3)c(SCc3ccccn3)oc2c1
71 | 77 to 82 | CCOC(=O)C12CCC(=O)N1C(=O)CC2
72 | 93 | Cc1nc(COC(=O)c2cccnc2C#N)cs1
73 | 295 to 300 | CCCN1NCc2c(C3C(=O)Nc4ccc(Br)cc43)ncnc21 (centres undefined)
74 | 160 to 162 | OCC1OC(n2cnc3c(NC4CCCCC4)nc(Cl)nc32)CC1O (centres undefined)
75 | 172 to 173 | COc1cccc([C@H]2O[C@H](CC(=O)Nc3cccc(CCC(=O)O)c3)C(=O)N(CC(C)(C)C)c3ccc(Cl)cc32)c1OC
76 | > 210 | N=C(N)c1cccc(Oc2cc(C(N)=O)cc(Oc3cccc(C(=N)N)c3)n2)c1
77 | 205 to 207 | CCN1CCN(c2cccc(Nc3nc4c(-c5ccc(P(C)(C)=O)cc5)cccn4n3)c2)C(=O)C1
78 | 75 to 76.5 | Cc1ccc(CC(=O)CCCC(=O)O)c(C)c1
79 | 253 | COc1ccc2c(c1)C(=O)c1ccc(-c3nnn[nH]3)cc1S2(=O)=O
80 | 80.5 to 89.9 | CNN1c2c(cc(Oc3ccc(F)cc3F)c(=O)n2NC)C=NC1SCc1ccccc1 (centres undefined)
81 | 97 to 98 | CN(CCc1ccc([N+](=O)[O-])cc1)C1CCN(c2ccc([N+](=O)[O-])cc2)CC1
82 | 184 | Cc1oc(-c2cccc(-c3ccc(C(=O)O)cc3)c2)nc1CCOc1cccc(OC(C)(C)C(=O)O)c1
83 | 265 to 266 | Cc1ccccc1NS(=O)(=O)c1ccc(NC2=C(Cl)C(=O)c3ccccc3C2=O)cc1
84 | 205 to 206 | CNc1nc(N)nc(-c2cc(Cl)ccc2Cl)n1
85 | 172 to 175 | Cc1ccccc1OCC(=O)Nc1ccc(C(=O)N2CCCCc3ccccc32)cc1
86 | 80 to 82 | CCOc1cc(C(CS(C)(=O)=O)N2C(=O)c3cccc(Cc4ccc[nH]4)c3C2=O)ccc1OC (centres undefined)
87 | 132 to 135 | CC(C)(C)OC(=O)/C(=C/c1ccccc1)C(=O)c1cc2ccccc2cc1O
88 | 170 to 173 | COC(=O)c1ccc(-c2ccc(OC)cc2)cc1
89 | 144 to 146 | CCN(CC)CCNC(=O)c1cccc2c(=O)c3c(I)cccc3[nH]c12

Row | Compound | melting point [°C]
90 | CN(C)C1(c2ccc(F)cc2)CCC2(CC1)NCCc1c2[nH]c2ccccc12 (centres undefined) | 249 to 250
91 | COC(=O)c1ccc2c(c1)C(SCCCl)c1ccccc1CO2 (centres undefined) | 100 to 102
92 | CN(C)[C@@H]1Cc2c(O)cccc2C[C@H]1O (relative stereo) | 179 to 183
93 | CCc1cc(NC(=O)c2nnn(Cc3ccccc3)n2)c(O)c(C(C)=O)c1 | 159 to 161
94 | CN1Cc2c(-c3nc(C4CC4)no3)ncn2-c2cccc(Cl)c2C1=O | 183 to 184

From a melting point compilation (Tetko et al.; mined from patent text by program, amines drawn as free bases though some values may be those of a salt)
